# In article PMC9798004 (Frontiers in Psychiatry, 2022):
# Entries after “also recorded” stand apart in the source; their conditions may differ.
# Columns and labels:
# [1] = set-up: method as in PMID 35210552; settings: rats; cited from earlier work
# [2] = target: T1, FPR1 (Homo sapiens, UniProt P21462); assay: PathHunter β-arrestin assay; type: cell-based; settings: antagonist mode vs EC80 of control agonist, 10-point curve
# T1 sequence (P21462 1-350): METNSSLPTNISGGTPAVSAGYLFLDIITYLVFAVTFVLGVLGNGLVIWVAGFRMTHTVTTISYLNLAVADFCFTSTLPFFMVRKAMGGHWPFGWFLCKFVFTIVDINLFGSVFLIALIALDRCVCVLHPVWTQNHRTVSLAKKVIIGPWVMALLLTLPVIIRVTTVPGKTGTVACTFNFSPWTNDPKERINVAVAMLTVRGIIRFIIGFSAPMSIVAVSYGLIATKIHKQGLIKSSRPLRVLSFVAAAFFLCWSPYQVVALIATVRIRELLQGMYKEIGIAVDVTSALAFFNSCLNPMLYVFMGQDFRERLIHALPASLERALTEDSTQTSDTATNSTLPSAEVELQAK
# [3] = target: T2, MRGPRX2 (Homo sapiens, UniProt Q96LB1); assay: PathHunter β-arrestin assay; type: cell-based; settings: antagonist mode vs EC80 of control agonist, 10-point curve
# T2 sequence (Q96LB1 1-330): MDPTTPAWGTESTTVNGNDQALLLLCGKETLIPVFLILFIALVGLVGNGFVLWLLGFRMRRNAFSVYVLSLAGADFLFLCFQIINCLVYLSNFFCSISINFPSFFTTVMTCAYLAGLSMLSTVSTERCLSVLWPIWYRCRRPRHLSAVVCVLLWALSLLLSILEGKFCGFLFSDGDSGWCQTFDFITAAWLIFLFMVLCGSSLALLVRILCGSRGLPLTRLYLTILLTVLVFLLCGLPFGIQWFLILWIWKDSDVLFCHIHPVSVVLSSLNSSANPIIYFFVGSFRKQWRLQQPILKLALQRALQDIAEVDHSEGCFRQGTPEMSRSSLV
# [4] = target: T3, CCR9 (Homo sapiens, UniProt P51686); assay: PathHunter β-arrestin assay; type: cell-based; settings: antagonist mode, up to 30 μM
# T3 construct: purchased Eurofins DiscoverX (PathHunter gpcrMAX)
# T3 sequence (P51686 1-369): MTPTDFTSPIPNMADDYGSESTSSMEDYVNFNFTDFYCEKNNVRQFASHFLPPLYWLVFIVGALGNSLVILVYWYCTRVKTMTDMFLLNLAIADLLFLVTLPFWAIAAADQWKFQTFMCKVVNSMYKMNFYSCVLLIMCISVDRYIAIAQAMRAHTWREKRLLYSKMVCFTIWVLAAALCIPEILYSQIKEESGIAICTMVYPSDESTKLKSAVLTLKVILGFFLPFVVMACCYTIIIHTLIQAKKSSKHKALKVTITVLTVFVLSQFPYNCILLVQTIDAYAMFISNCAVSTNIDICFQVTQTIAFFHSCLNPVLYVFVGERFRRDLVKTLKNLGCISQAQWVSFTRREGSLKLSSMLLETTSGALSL
# [5] = target: T4, CCR4 (Homo sapiens, UniProt P51679); assay: PathHunter β-arrestin assay; type: cell-based; settings: antagonist mode vs EC80 of control agonist, 10-point curve
# T4 sequence (P51679 1-360): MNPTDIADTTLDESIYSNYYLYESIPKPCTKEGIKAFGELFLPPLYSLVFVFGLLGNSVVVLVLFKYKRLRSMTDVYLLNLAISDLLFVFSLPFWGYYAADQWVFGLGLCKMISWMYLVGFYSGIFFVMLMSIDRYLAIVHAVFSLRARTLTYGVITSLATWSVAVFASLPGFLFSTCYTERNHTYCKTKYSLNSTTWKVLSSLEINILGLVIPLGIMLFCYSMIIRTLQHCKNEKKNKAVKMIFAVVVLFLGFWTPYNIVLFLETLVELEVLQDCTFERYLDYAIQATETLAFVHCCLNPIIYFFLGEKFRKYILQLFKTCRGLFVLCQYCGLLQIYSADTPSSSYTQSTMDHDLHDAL
# [6] = target: T5, GALR2 (Homo sapiens, UniProt O43603); assay: PathHunter β-arrestin assay; type: cell-based; settings: antagonist mode, up to 30 μM
# T5 construct: purchased Eurofins DiscoverX (PathHunter gpcrMAX)
# T5 sequence (O43603 whole entry): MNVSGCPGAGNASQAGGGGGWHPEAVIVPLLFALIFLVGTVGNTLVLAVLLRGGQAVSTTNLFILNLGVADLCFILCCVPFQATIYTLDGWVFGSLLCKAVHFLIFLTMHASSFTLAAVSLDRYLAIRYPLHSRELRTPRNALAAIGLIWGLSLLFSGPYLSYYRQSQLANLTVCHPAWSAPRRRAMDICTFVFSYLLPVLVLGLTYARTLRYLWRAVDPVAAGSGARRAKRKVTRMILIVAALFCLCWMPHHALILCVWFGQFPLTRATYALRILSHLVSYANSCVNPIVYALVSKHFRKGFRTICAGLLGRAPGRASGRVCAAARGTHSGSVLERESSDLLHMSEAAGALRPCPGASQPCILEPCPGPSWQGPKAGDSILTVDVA
# [7] = target: T6, ADORA3 (Homo sapiens, UniProt P0DMS8); assay: PathHunter β-arrestin assay; type: cell-based; settings: antagonist mode vs EC80 of control agonist, 10-point curve
# T6 construct: host or cells: CHO
# T6 sequence (P0DMS8 whole entry): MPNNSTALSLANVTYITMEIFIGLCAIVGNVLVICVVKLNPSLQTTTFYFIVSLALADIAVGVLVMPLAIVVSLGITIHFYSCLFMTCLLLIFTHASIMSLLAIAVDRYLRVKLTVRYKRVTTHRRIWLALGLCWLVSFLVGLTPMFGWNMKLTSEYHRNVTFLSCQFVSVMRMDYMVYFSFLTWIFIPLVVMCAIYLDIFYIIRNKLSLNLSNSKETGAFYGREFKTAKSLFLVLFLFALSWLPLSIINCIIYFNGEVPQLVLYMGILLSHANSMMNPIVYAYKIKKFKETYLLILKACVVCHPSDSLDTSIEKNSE
# [8] = target: GPR35 (Homo sapiens, UniProt Q9HC97); assay: PathHunter β-arrestin assay; type: cell-based; settings: antagonist mode, up to 30 μM
# Sequence of GPR35 (Q9HC97 whole entry): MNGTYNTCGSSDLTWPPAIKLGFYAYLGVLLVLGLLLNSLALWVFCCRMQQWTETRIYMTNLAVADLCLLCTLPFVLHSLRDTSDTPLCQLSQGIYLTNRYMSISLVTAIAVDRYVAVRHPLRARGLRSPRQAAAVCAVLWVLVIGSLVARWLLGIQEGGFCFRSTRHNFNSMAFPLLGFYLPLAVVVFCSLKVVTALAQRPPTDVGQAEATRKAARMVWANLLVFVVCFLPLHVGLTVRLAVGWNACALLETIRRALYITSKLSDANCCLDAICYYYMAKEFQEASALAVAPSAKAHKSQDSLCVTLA
# [9] = target: MC5R (Homo sapiens, UniProt P33032); assay: PathHunter β-arrestin assay; type: cell-based; settings: antagonist mode vs EC80 of control agonist, 10-point curve
# Sequence of MC5R (P33032 whole entry): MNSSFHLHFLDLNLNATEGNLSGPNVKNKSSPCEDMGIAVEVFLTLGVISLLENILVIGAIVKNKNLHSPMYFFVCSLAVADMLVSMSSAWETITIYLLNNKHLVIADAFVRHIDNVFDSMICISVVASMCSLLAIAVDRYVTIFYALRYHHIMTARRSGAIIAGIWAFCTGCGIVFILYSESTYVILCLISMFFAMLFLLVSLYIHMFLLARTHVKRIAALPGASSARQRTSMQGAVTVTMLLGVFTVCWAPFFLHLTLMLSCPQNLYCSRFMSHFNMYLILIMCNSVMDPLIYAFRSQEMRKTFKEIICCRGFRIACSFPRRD
# [10] = target: T7, GALR1 (Homo sapiens, UniProt P47211); assay: PathHunter β-arrestin assay; type: cell-based; settings: antagonist mode, up to 30 μM
# T7 construct: purchased Eurofins DiscoverX (PathHunter gpcrMAX)
# T7 sequence (P47211 whole entry): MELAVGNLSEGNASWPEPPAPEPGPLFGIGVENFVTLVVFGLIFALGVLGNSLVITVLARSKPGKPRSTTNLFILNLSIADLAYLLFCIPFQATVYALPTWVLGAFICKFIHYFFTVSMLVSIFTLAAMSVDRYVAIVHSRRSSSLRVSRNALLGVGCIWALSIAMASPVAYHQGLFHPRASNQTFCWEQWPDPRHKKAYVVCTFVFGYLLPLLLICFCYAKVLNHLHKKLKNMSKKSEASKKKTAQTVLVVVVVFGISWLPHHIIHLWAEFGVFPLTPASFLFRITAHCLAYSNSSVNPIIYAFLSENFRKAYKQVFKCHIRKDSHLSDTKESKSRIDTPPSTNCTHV
# [11] = target: T8, CHRM2 (Homo sapiens, UniProt P08172); assay: PathHunter β-arrestin assay; type: cell-based; settings: antagonist mode vs EC80 of control agonist, 10-point curve
# T8 sequence (P08172 1-466): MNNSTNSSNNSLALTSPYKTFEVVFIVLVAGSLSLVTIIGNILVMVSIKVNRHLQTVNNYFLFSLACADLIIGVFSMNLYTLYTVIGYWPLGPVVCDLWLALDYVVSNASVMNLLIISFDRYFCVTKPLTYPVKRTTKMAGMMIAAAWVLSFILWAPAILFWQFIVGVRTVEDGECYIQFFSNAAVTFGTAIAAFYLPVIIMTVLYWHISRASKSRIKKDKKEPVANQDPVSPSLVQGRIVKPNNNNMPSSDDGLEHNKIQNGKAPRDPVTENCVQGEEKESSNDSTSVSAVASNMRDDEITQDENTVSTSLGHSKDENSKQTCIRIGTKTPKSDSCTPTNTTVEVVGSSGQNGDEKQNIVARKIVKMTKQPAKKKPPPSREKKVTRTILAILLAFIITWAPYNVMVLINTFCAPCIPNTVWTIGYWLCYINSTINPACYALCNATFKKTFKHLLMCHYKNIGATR
# [12] = system: CB1; set-up: method as in PMID 31513380; settings: 10 μM; cited from earlier work
smiles,measurement,setting,value
COC(=O)[C@@H](NC(=O)c1nn(Cc2ccc(F)cc2)c2ccccc12)C(C)C [AMB-FUBINACA],brain concentration relative to plasma,[1],~ 5 fold
same,IC50,[2],7.91 µM
same,IC50,[3],11.8 µM
same,inhibitory activity in concentration-response,[4],Activity was only observed at the highest concentration (30 μM); also recorded: only inhibited at the highest 30 μM concentration
same,IC50,[5],11.5 µM
same,inhibitory activity in concentration-response,[6],did not produce any clear activity
same,IC50,[7],14.6 µM
same,inhibitory activity in concentration-response,[8],did not produce any clear activity
same,IC50,[9],14.1 µM
same,inhibitory activity in concentration-response,[10],Activity was only observed at the highest concentration (30 μM)
same,IC50,[11],12.9 µM
same,time to peak β-arrestin-2 recruitment,[12],< 10 min
